According to patent US11739053B2, “P62-ZZ chemical inhibitor” (ID4PHARMA, LLC, priority 2011, dated 2023):

What was measured:
phospho-PKCζ = experiment: TNF-α induced PKCζ phosphorylation in MM1.S cells; type: cell-based, human; details: pre-treated 3 hours
Method: Compound 3 was tested for its capacity to block MM-stimulated signaling in marrow stromal cells, thereby resulting in less bone destruction and MM growth. The effects of the compound 3 on GFP-labeled MM1.S myeloma cell growth with/without stromal cells, IL-6 and VCAM-1 expression on stromal cells induced by TNF-α and OCL formation, and TNF-α induced PKCζ phosphorylation, the specific kinase enzyme activated p62-ZZ, were examined. GFP-labeled MM1.S myeloma cells or normal human CFU-GM, a source of OCL precursors, were then co-cultured with human stromal cells with the p62-ZZ inhibitor. […] VCAM-1 expression and IL-6 production induced by TNF-α on stromal cells was blocked by 30% and 90% respectively compared to vehicle levels. Furthermore, TNF-α induced PKC, phosphorylation blocked was in stromal cells and MM1.S when pre-treated with this p62-ZZ inhibitory compound for 3 hours.

MM1.S cells = experiment: Caspase 9, 7 and 3 cleavage in MM1.S cells, Western blot; type: cell-based, human; details: 10 μM, after 16 hours
Method: FIG. 9A-C: 9A. […] MM1.S cells were cultured with 10 μM of p62-ZZ antagonist for the indicated time, and then cell lysates were collected. Caspase 9, 7 and 3 were detected by Western blotting using anti-caspase 9, 7 and 3 specific antibodies (Cell Signaling). FIG. 9B. Detection of Apoptosis using the TUNEL reaction with MM1.S cells treated with p62-ZZ antagonist. MM1.S cells were treated with 10/μM of p62-ZZ antagonist #3 for 24 hours and then the cells were collected and mounted on glass slides using the cytospin procedure. Terminal deoxynucleotidyl transferase nick end labeling (TUNEL) reactions were conducted using an In Situ Cell Death Detection Kit (Roche) according to the manufacturer's instructions. The stained cells were analyzed using a fluorescence microscope equipped with standard green filter. FIG. 9C. The p62-ZZ antagonist induced Reactive Oxygen Species in MM1.S cells. MM1.S cells were treated with 10 μM of p62-ZZ antagonist #3 for 6 hours. Cells were collected and stained for Reactive Oxygen Species (ROS) using a Total ROS detection kit (Enzo) according to the manufacturer's instructions. The expression of apoptosis markers in p62-ZZ antagonist treated on 25 MM cells was determined to determine the mechanism action of this antagonist.

[1] = tested on: p62 knockout OCL precursors; experiment: OCL formation by p62-/- mouse osteoclast precursors, TRACP stain; type: cell-based; details: 7 days, 50 ng/ml TNFα
Method: FIG. 7A-C: 7A. CFU-Blast colony formation. Human CD34(+) cells were cultured with p62-ZZ inhibitor #3 and 1 ng/ml of rhIL-3 IL-6 and SCF for 7 days. Data are shown as the mean±SD (n=5). FIG. 7B. Human OCL formation. Non-adherent mononuclear cells (2.5×10^7 cells/10-cm dish) derived from human bone marrow samples were cultured in α-MEM containing 10% FCS, 100 pg/ml recombinant human GM-CSF(R & D) for 7 days. Then the cells were collected and plated (cell density is 1.0×10^6 cells/nil) in α-MEM containing 20% horse serum with 1 ng/ml TNFα. Half-media changes were performed twice a week containing various concentrations of the p62-ZZ inhibitor #3. The cultures were incubated for a total of 2 weeks at 37° C. with 5% CO2 and 95% humidity. The osteoclasts were stained with the 23C6 antibody which recognizes CD51/61. Data are shown as the mean±SD (n=5). *P<0.01 compared to vehicle treated cultures. 7C. OCL formation by wild type and p62−/− mouse osteoclast precursors. Data is shown as the mean±SD (n=4). *: P<0.01 compared to no-inhibitor cultures. The effects of p62-ZZ inhibitor #3 on osteoclast formation by p62^−/− OCL precursors were examined to determine the specificity of the effects of the p62-ZZ inhibitor #3 on osteoclast precursors. CDIIb(+) mononuclear cells from wild type and p62″/_mice were used. […] OCLs were scored as TRAP positive cells containing 3 or more nuclei. […]

MM1.S myeloma cell line = experiment: MM1.S myeloma cell proliferation, MTT assay; type: cell-based, human; details: 48 h
Method: FIG. 4A-C: 4A. Effect of p62-ZZ inhibitor #3 on myeloma cell growth. MM cell growth was assayed by MTT assay. Data are shown as mean±SD (n=5). FIG. 4B. MTT assay of CD138(+) primary myeloma cells. Data are shown as mean±SD (n=5). FIG. 4C. Effects of p62-ZZ inhibitors on human stromal cell growth. Primary human stromal cells (5×10^3/well) were cultured with 10 μM of p62-ZZ inhibitor (#1-6) containing 10% FCS in IMDM for 48 hours. Stromal cells growth was assayed by MTT assay. Data are shown as the mean±SD (n=5). *P<0.01 compared to vehicle treated culture. MM1.S (3×10^5 cells/well) or CD138 (+) (1×10^5 cells/well) primary myeloma cells were incubated in 96-well plates in the presence of RPMI-1640-10% FCS and various concentrations of p62-ZZ inhibitor #3 at 37° C. 5% CO2 for 48 h to determine the IC50 for inhibiting myeloma cell proliferation.

Structure (SMILES): OCCNCc1ccc(OCc2ccccc2)c(OCc2ccccc2)c1 [Compound 3, 2-[[3,4-bis(phenylmethoxy)phenyl]methylamino]ethanol]
- TNF-α induced PKCζ phosphorylation in MM1.S (phospho-PKCζ): blocked
- cleavage of caspase 9, 7 and 3 (MM1.S cells): induced cleavage
- OCL formation by p62 knockout OCL precursors [1]: did not block
- growth of MM1.S myeloma cell line (result in words) (MM1.S myeloma cell line; FIG. 4A): directly inhibited
- IC50 (MM1.S myeloma cell line; Homo sapiens, MM1.S): 6.19 µM
